US20240390408A1, “METHOD OF TREATING HEPATITIS C VIRUS IN PATIENTS” (Altesa BioSciences, Inc., priority 2023, published 2024)
Like-named read-outs stand apart in the source and are kept apart here.

Assay: Tissue concentrations of Formula I and its metabolites in Göttingen pigs after a single oral or intravenous dose (LC-MS/MS)
Assay type: in vivo
Conditions: for Exposure in the lung and spleen, fold lower than liver and kidneys: after PO dosing with Formula I; for concentration at 2 h / concentration at 3 h / concentration at 12 h / concentration at 24 h: both sexes, Göttingen, pig (minipig)
Protocol: Tissue samples were collected at 3, 12, and 24 hours post-dose (hpd) for the oral dose and 2 and 12 hpd for the intravenous dose, snap-frozen in liquid nitrogen, and stored at −60 to −90° C. until shipment on dry ice for analysis by LC-MS/MS.
Animals were weighed the day prior to dosing to determine the dosing volume.
The compound of Formula I was dissolved in a PEG 400/DI water (60%/40% v/v) vehicle for oral dosing. For IV dosing the compound of Formula I was dissolved in a PEG 400/Cremophor RH 40/Saline (40%/10%/50% v/v) vehicle and passed through a sterile filter. […] Animals were euthanized by euthanasia solution administration under sedation, if necessary (e.g., acepromazine and or/Telazol®), followed by a Testing Facility SOP approved method to ensure death (e.g., exsanguination). Tissues were collected from two animals per sex per timepoint. Tissue samples, including the brain, heart, kidney, liver, lung, spleen, pancreas, bone marrow, duodenum, jejunum, and colon, were collected in duplicate (approximately 50±20 mg each) and placed into two separate reinforced homogenization tubes per organ (one tissue sample per tube). The exact weight (in milligrams) of each sample was recorded. Tissues samples were flash frozen in liquid nitrogen and stored at −60 to −90° C. until shipment on dry ice for analysis by LC-MS/MS.
Mobile phase A consisted of 50 mM ammonium bicarbonate buffer in HPLC grade water pH 9.8 and mobile phase B consisted of pure acetonitrile. […] Mass spectrometry analysis was performed on a QTrap 7500 Mass Spectrometer (Sciex, Framingham, MA, USA) using negative mode electrospray ionization (ESI) in multiple reaction monitoring (MRM) mode. Data analysis was performed using SCIEX OS Software (Sciex, Framingham, MA, USA).
Tissue samples were collected at 3, 12, and 24 hours post-dose for the oral dose and 2 and 12 hour post-dose for the intravenous dose.

[1] = kidney, single intravenous bolus of Formula I 25 mg/kg, 12 hpd, read-out: Tissue concentration, kidney
[2] = kidney, single oral dose of Formula I 125 mg/kg, 3 hpd, read-out: Tissue concentration, kidney
[3] = kidney, single oral dose of Formula I 125 mg/kg, 12 hpd, read-out: Tissue concentration, kidney
[4] = kidney, single oral dose of Formula I 125 mg/kg, 24 hpd, read-out: Tissue concentration, kidney
[5] = liver, single intravenous bolus of Formula I 25 mg/kg, 2 hpd, read-out: Tissue concentration, liver
[6] = liver, single intravenous bolus of Formula I 25 mg/kg, 12 hpd, read-out: Tissue concentration, liver
[7] = liver, single oral dose of Formula I 125 mg/kg, 12 hpd, read-out: Tissue concentration in Göttingen pig liver (Table 7)
[8] = liver, single oral dose of Formula I 125 mg/kg, 12 hpd, read-out: Tissue concentration, liver
[9] = liver, single oral dose of Formula I 125 mg/kg, 24 hpd, read-out: Tissue concentration in Göttingen pig liver (Table 7)
[10] = liver, single oral dose of Formula I 125 mg/kg, 24 hpd, read-out: Tissue concentration, liver
[11] = lung, single intravenous bolus of Formula I 25 mg/kg, 2 hpd, read-out: Tissue concentration, lung
[12] = lung, single intravenous bolus of Formula I 25 mg/kg, 12 hpd, read-out: Tissue concentration, lung
[13] = lung, single oral dose of Formula I 125 mg/kg, 3 hpd, read-out: Tissue concentration, lung
[14] = lung, single oral dose of Formula I 125 mg/kg, 12 hpd, read-out: Tissue concentration, lung
[15] = spleen, single intravenous bolus of Formula I 25 mg/kg, 2 hpd, read-out: Tissue concentration, spleen
[16] = spleen, single intravenous bolus of Formula I 25 mg/kg, 12 hpd, read-out: Tissue concentration, spleen
[17] = spleen, single oral dose of Formula I 125 mg/kg, 3 hpd, read-out: Tissue concentration, spleen
[18] = brain, single intravenous bolus of Formula I 25 mg/kg, 2 hpd
[19] = brain, single intravenous bolus of Formula I 25 mg/kg, 12 hpd
[20] = brain, single oral dose of Formula I 125 mg/kg, 3 hpd
[21] = brain, single oral dose of Formula I 125 mg/kg, 12 hpd
[22] = brain, single oral dose of Formula I 125 mg/kg, 24 hpd
[23] = heart, single intravenous bolus of Formula I 25 mg/kg, 12 hpd
[24] = heart, single oral dose of Formula I 125 mg/kg, 3 hpd
[25] = heart, single oral dose of Formula I 125 mg/kg, 24 hpd
[26] = kidney, single intravenous bolus of Formula I 25 mg/kg, 2 hpd
[27] = kidney, single oral dose of Formula I 125 mg/kg, 3 hpd
[28] = liver, single oral dose of Formula I 125 mg/kg, 3 hpd
[29] = liver, single oral dose of Formula I 125 mg/kg, 24 hpd
[30] = spleen, single oral dose of Formula I 125 mg/kg, 3 hpd

C[C@H](NP(=O)(O)OC[C@H]1O[C@@H](n2ccc(=O)[nH]c2=S)C(C)(O)C1O)C(=O)O (stereo in doubt) [Formula II]
Exposure in the lung and spleen, fold lower than liver and kidneys: about 10 fold | concentration at 2 h (brain, single intravenous bolus of Formula I 25 mg/kg, 2 hpd, read-out: Tissue concentration, brain): 4.9 ± 9.8 ng/g | concentration at 3 h (brain, single oral dose of Formula I 125 mg/kg, 3 hpd, read-out: Tissue concentration, brain): 27 ± 23.4 ng/g | concentration at 2 h (heart, single intravenous bolus of Formula I 25 mg/kg, 2 hpd, read-out: Tissue concentration, heart): 292 ± 139 ng/g | concentration at 12 h (heart, single intravenous bolus of Formula I 25 mg/kg, 12 hpd, read-out: Tissue concentration, heart): 7.85 ± 9.5 ng/g | concentration at 3 h (heart, single oral dose of Formula I 125 mg/kg, 3 hpd, read-out: Tissue concentration, heart): 780 ± 375 ng/g | concentration at 12 h (heart, single oral dose of Formula I 125 mg/kg, 12 hpd, read-out: Tissue concentration, heart): 3.33 ± 6.65 ng/g | concentration at 2 h (kidney, single intravenous bolus of Formula I 25 mg/kg, 2 hpd, read-out: Tissue concentration, kidney): 6920 ± 3290 ng/g | concentration at 12 h [1]: 39.3 ± 32.1 ng/g | concentration at 3 h [2]: 10300 ± 2300 ng/g | concentration at 12 h [3]: 180 ± 172 ng/g | concentration at 24 h [4]: 30 ± 12.8 ng/g | concentration at 2 h [5]: 694 ± 385 ng/g | concentration at 12 h [6]: 17.9 ± 16.4 ng/g | concentration at 3 h (liver, single oral dose of Formula I 125 mg/kg, 3 hpd, read-out: Tissue concentration in Göttingen pig liver (Table 7)): 29200 ± 12200 nM | concentration at 3 h (liver, single oral dose of Formula I 125 mg/kg, 3 hpd, read-out: Tissue concentration, liver): 12400 ± 5150 ng/g | concentration at 12 h [7]: 475 ± 727 nM | concentration at 12 h [8]: 202 ± 309 ng/g | concentration at 24 h [9]: 107 ± 60.6 nM | concentration at 24 h [10]: 45.6 ± 25.8 ng/g | concentration at 2 h [11]: 786 ± 134 ng/g | concentration at 12 h [12]: 31.8 ± 5.52 ng/g | concentration at 3 h [13]: 1630 ± 667 ng/g | concentration at 12 h [14]: 16.5 ± 12.8 ng/g | concentration at 24 h (lung, single oral dose of Formula I 125 mg/kg, 24 hpd, read-out: Tissue concentration, lung): 2.25 ± 4.51 ng/g | concentration at 2 h [15]: 530 ± 284 ng/g | concentration at 12 h [16]: 24.8 ± 7.34 ng/g | concentration at 3 h [17]: 1390 ± 301 ng/g | concentration at 12 h (spleen, single oral dose of Formula I 125 mg/kg, 12 hpd, read-out: Tissue concentration, spleen): 11.9 ± 9.24 ng/g | concentration at 24 h (spleen, single oral dose of Formula I 125 mg/kg, 24 hpd, read-out: Tissue concentration, spleen): 2.27 ± 4.53 ng/g | Tissue concentration, brain [18]: 4.90 ± 9.80 ng/g | Tissue concentration, brain [19]: not observable and BQL | Tissue concentration, brain [20]: 27.0 ± 23.4 ng/g | Tissue concentration, brain [21]: BQL | Tissue concentration, brain [22]: BQL | Tissue concentration, heart [23]: 7.85 ± 9.50 ng/g | Tissue concentration, heart [24]: 780 ± 375 ng/g | Tissue concentration, heart [25]: BQL | Tissue concentration, kidney [26]: 6920 ± 3290 ng/g | Tissue concentration, kidney (kidney, single intravenous bolus of Formula I 25 mg/kg, 12 hpd): 39.3 ± 32.1 ng/g | Tissue concentration, kidney [27]: 10300 ± 2300 ng/g | Tissue concentration, liver [28]: 12400 ± 5150 ng/g | Tissue concentration, liver [29]: 45.6 ± 25.8 ng/g | Tissue concentration, lung (lung, single oral dose of Formula I 125 mg/kg, 3 hpd): 1630 ± 667 ng/g | Tissue concentration, spleen [30]: 1390 ± 301 ng/g

CC1(O)[C@@H](O)[C@@H](COP(=O)(O)O)O[C@H]1n1ccc(=O)[nH]c1=S (stereo partly drawn) [Formula III]
Exposure in the lung and spleen, fold lower than liver and kidneys: about 10 fold | concentration at 24 h (125 mg/kg, liver and kidney, 24 hpd after oral dosing with Formula I, read-out: Concentration measurable in the liver and kidney): ~500 nM | concentration at 12 h [1]: 276 ± 78.1 ng/g | concentration at 3 h [2]: 14100 ± 5050 ng/g | concentration at 12 h [3]: 824 ± 432 ng/g | concentration at 24 h [4]: 85.5 ± 18.1 ng/g | concentration at 2 h [5]: 13100 ± 3070 ng/g | concentration at 12 h [6]: 62.7 ± 77.7 ng/g | concentration at 12 h [7]: 1640 ± 924 nM | concentration at 12 h [8]: 582 ± 328 ng/g | concentration at 24 h [9]: 537 ± 229 nM | concentration at 24 h [10]: 190 ± 81 ng/g | concentration at 2 h [11]: 2040 ± 883 ng/g | concentration at 12 h [12]: 357 ± 207 ng/g | concentration at 3 h [13]: 303 ± 94.4 ng/g | concentration at 12 h [14]: 55.2 ± 64.6 ng/g | concentration at 2 h [15]: 240 ± 28.3 ng/g | concentration at 12 h [16]: 58.9 ± 14.7 ng/g | concentration at 3 h [17]: 118 ± 10.8 ng/g | Tissue concentration, brain [18]: BQL | Tissue concentration, brain [19]: BQL | Tissue concentration, brain [20]: BQL | Tissue concentration, brain [21]: BQL | Tissue concentration, brain [22]: BQL | Tissue concentration, heart (heart, single intravenous bolus of Formula I 25 mg/kg, 2 hpd): 89.9 ± 65.5 ng/g | Tissue concentration, heart [23]: BQL | Tissue concentration, heart [24]: 34.0 ± 39.9 ng/g | Tissue concentration, heart (heart, single oral dose of Formula I 125 mg/kg, 12 hpd): BQL | Tissue concentration, heart [25]: BQL | Tissue concentration, kidney [26]: above the limit of quantitation and AQL | Tissue concentration, kidney [27]: 14100 ± 5050^ ng/g | Tissue concentration, kidney (kidney, single oral dose of Formula I 125 mg/kg, 24 hpd): 85.5 ± 18.1 ng/g | Tissue concentration, liver (liver, single intravenous bolus of Formula I 25 mg/kg, 2 hpd): 13100 ± 3070 ng/g | Tissue concentration in Göttingen pig liver (Table 7) [28]: AQL | Tissue concentration, liver [28]: above the limit of quantitation and AQL | Tissue concentration, liver [29]: 190 ± 81.0 ng/g | Tissue concentration, lung (lung, single intravenous bolus of Formula I 25 mg/kg, 12 hpd): 357 ± 207 ng/g | Tissue concentration, lung (lung, single oral dose of Formula I 125 mg/kg, 24 hpd): BQL | Tissue concentration, spleen (spleen, single intravenous bolus of Formula I 25 mg/kg, 12 hpd): 58.9 ± 14.7 ng/g | Tissue concentration, spleen [30]: 118 ± 10.8 ng/g | Tissue concentration, spleen (spleen, single oral dose of Formula I 125 mg/kg, 12 hpd): BQL | Tissue concentration, spleen (spleen, single oral dose of Formula I 125 mg/kg, 24 hpd): BQL
